Measurements published in patent US7378411B2, “Substituted thienopyrimidinones as a mitotic kinesin inhibitor” (Merck & Co., Inc., priority 2001, dated 2008).

Target: T1, human KSP motor domain (Homo sapiens, UniProt P52732)
T1 construct: were used to amplify the motor domain and the neck linker region; made in house; host or cells: E. coli BL21 (DE3), pRSETa
T1 sequence (P52732 18-359 limits assumed): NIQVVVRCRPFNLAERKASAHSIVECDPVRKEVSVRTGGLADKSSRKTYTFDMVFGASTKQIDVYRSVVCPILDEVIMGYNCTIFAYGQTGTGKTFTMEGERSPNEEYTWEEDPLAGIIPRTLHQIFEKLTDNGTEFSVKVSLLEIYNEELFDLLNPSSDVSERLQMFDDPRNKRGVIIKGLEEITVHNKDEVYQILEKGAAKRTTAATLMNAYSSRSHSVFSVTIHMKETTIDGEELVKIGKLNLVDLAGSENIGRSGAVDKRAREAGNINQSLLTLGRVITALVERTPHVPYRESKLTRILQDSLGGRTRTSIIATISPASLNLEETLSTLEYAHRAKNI
Assay: Kinesin ATPase In Vitro Assay
Type: biochemical
Details: KSP(367H) motor domain with microtubules, 1 mM ATP, 23° C.; free phosphate by quinaldine red/ammonium molybdate
Description: I. Kinesin ATPase In Vitro Assay
Cloning and Expression of Human Poly-histidine Tagged KSP Motor Domain (KSP(367H))
Plasmids for the expression of the human KSP motor domain construct were cloned by PCR using a pBluescript full length human KSP construct (Blangy et al., Cell, vol. 83, pp 1159-1169, 1995) as a template. The N-terminal primer 5′-[…] (SEQ.ID.NO.:) and the C-terminal primer 5′-[…] […] (SEQ.ID.NO.:) were used to amplify the motor domain and the neck linker region. The PCR products were digested with AseI and XhoI, ligated into the NdeIl/XhoI digestion product of pRSETa (Invitrogen) and transformed into E. coli BL21 (DE3).
Cells were grown at 37° C. to an OD600 of 0.5. After cooling the culture to room temperature expression of KSP was induced with 100 μM IPTG and incubation was continued overnight. Cells were pelleted by centrifugation and washed once with ice-cold PBS. Pellets were flash-frozen and stored −80° C.
Cell pellets were thawed on ice and resuspended in lysis buffer (50 mM K-HEPES, pH 8.0, 250 mM KCl, 0.1% Tween, 10 mM imidazole, 0.5 mM Mg-ATP, 1 mM PMSF, 2 mM benzimidine, 1× complete protease inhibitor cocktail (Roche)). Cell suspensions were incubated with 1 mg/ml lysozyme and 5 mM β-mercaptoethanol on ice for 10 minutes, followed by sonication (3×30 sec). All subsequent procedures were performed at 4° C. Lysates were centrifuged at 40,000×g for 40 minutes. Supernatants were diluted and loaded onto an SP Sepharose column (Pharmacia, 5 ml cartridge) in buffer A (50 mM K-HEPES, pH 6.8, 1 mM MgCl2, 1 mM EGTA, 10 μM Mg-ATP, 1 mM DTT) and eluted with a 0 to 750 mM KCl gradient in buffer A. Fractions containing KSP were pooled and incubated with Ni-NTA resin (Qiagen) for one hour. The resin was washed three times with buffer B (Lysis buffer minus PMSF and protease inhibitor cocktail), followed by three 15-minute incubations and washes with buffer B. Finally, the resin was incubated and washed for 15 minutes three times with buffer C (same as buffer B except for pH 6.0) and poured into a column. KSP was eluted with elution buffer (identical to buffer B except for 150 mM KCl and 250 mM imidazole). KSP-containing fractions were pooled, made 10% in sucrose, and stored at −80° C.
Microtubules are prepared from tubulin isolated from bovine brain. Purified tubulin (>97% MAP-free) at 1 mg/ml is polymerized at 37° C. in the presence of 10 μM paclitaxel, 1 mM DTT, 1 mM GTP in BRB80 buffer (80 mM K-PIPES, 1 mM EGTA, 1 mM MgCl2 at pH 6.8). The resulting microtubules are separated from non-polymerized tubulin by ultracentrifugation and removal of the supernatant. The pellet, containing the microtubules, is gently resuspended in 10 μM paclitaxel, 1 mM DTT, 50 μg/ml ampicillin, and 5 μg/ml chloramphenicol in BRB80.
The kinesin motor domain is incubated with microtubules, 1 mM ATP (1:1 MgCl2: Na-ATP), and compound at 23° C. in buffer containing 80 mM K-HEPES (pH 7.0), 1 mM EGTA, 1 mM DTT, 1 mM MgCl2, and 50 mM KCl. […] Free phosphate from the ATP hydrolysis reaction is measured via a quinaldine red/ammonium molybdate assay by adding 150 μl of quench C buffer containing a 2:1 ratio of quench A:quench B. Quench A contains 0.1 mg/ml quinaldine red and 0.14% polyvinyl alcohol; quench B contains 12.3 mM ammonium molybdate tetrahydrate in 1.15 M sulfuric acid. The reaction is incubated for 10 minutes at 23° C., and the absorbance of the phospho-molybdate complex is measured at 540 nm.

SMILES | IC50
CCC(c1nc2sc(Br)cc2c(=O)n1Cc1ccccc1)N(CCN(C)C)C(=O)c1ccc(Br)cc1 (centres unmarked) [Compound 2-10, N-[1-(3-benzyl-6-bromo-4-oxo-3,4-dihydrothieno[2,3-d]pyrimidin-2-yl)propyl]-4-bromo-N-[2-(dimethylamino)ethyl]benzamide] | ≤ 50 µM
CCC(c1nc2sccc2c(=O)n1Cc1ccccc1)N(CCN(C)C)C(=O)c1ccc(Br)cc1 (centres unmarked) [Compound 3-2, N-[1-(3-benzyl-4-oxo-3,4-dihydrothieno[2,3-d]pyrimidin-2-yl)propyl]-4-bromo-N-[2-(dimethylamino)ethyl]benzamide] | ≤ 50 µM
CCC(c1nc2sccc2c(=O)n1Cc1ccccc1)N(CCN(C)C)Cc1ccc(Br)cc1 (centres unmarked) [Compound 4-1, 3-benzyl-2-(1-{(4-bromobenzyl)[2-(dimethylamino)ethyl]amino}propyl)thieno[2,3-d]pyrimidin-4(3H)-one] | ≤ 50 µM

The next lines start with the values.

IC50 | SMILES
≤ 50 µM | CCC(c1nc2ccsc2c(=O)n1Cc1ccccc1)N(CCN(C)C)C(=O)c1ccc(Br)cc1 (centres unmarked) [Compound 1-8, N-[1-(3-Benzyl-4-oxo-3,4-dihydrothieno[3,2-d]pyrimidin-2-yl)propyl]-4-bromo-N-[2-(dimethylamino)ethyl]benzamide]
≤ 50 µM | CCC(c1nc2sc(Br)c(Br)c2c(=O)n1Cc1ccccc1)N(CCN(C)C)C(=O)c1ccc(Br)cc1 (centres unmarked) [Compound 2-9, N-[1-(3-benzyl-5,6-dibromo-4-oxo-3,4-dihydrothieno[2,3-d]pyrimidin-2-yl)propyl]-4-bromo-N-[2-(dimethylamino)ethyl]benzamide]
